Data set [1] can be described thus: NOVARTIS: Cytotoxicity against human hepatocellular carcinoma cell line (Huh7). The format is toxicity, cell-based, Huh-7. As to conditions: Huh7 cells (hepatocellular carcinoma cell line).
Data set [2] deals with Plasmodium falciparum. Nature of the data set: NOVARTIS: Inhibition of Plasmodium falciparum 3D7 (drug-susceptible) proliferation in erythrocyte-based infection assay. As to conditions: Plasmodium falciparum, 3D7. The class given is functional, organism-based.
Data set [3] has as its system Plasmodium falciparum. Nature of the data set: NOVARTIS: Inhibition of Plasmodium falciparum W2 (drug-resistant) proliferation in erythrocyte-based infection assay. The format is functional, organism-based. As to conditions: Plasmodium falciparum, W2; read-out: EC50.

Experimental findings from ChEMBL document CHEMBL1156829 (Proc Natl Acad Sci U S A, 2008) are described below.

For orientation: CC50 means the concentration that lowers cell viability or growth by half. The low end stands for greater toxicity to the cells, the high end for lower toxicity to the cells. The EC50 is the midpoint of the concentration-response curve.

Molecules are shown by their SMILES.

For the molecule `O=C(N1CCCCC1)n1nnc2ccccc21`, in data set [1], the CC50 was > 100000 nM. For the same molecule, the EC50 turned out to be 1310 nM in data set [2] and 396 nM in data set [3].
The corresponding values for `CCC(C)NCC(O)(c1ccc(Cl)cc1)c1ccc(Cl)cc1` (configuration not stated) are 46300 nM, 639 nM and 184 nM.
On to `Cc1cc(N2CCC(C)CC2)nc(-n2nc(C)cc2C)n1`, for which the CC50 in data set [1] was > 100000 nM. Besides, the EC50 in data set [2] worked out at 1100 nM; in data set [3], 382 nM.
As for `O=C(NC(c1ccccc1)c1ccc2cccnc2c1O)c1ccccc1` (configuration not stated), the CC50 in data set [1] is > 100000 nM. Moreover, the EC50 in data set [2] turned out to be 533 nM; in data set [3], 376 nM.
The like results for `COc1ccc(-n2nc(C(=O)NCc3ccccc3OC)c3ccccc3c2=O)cc1` were, in that order, > 100000 nM, 377 nM and 390 nM.
The corresponding values for `Fc1cccc2sc(Nc3nc(-c4ccccn4)cs3)nc12` are 24700 nM, 321 nM and 95.8 nM.
The corresponding values for `Cc1cc(Nc2ccc(C)c(C)c2)n2nc(C)nc2n1` are > 100000 nM, 183 nM and 378 nM.
The molecule `O=C1CN(C(=O)CCC2CCCC2)C(c2ccc(F)cc2)c2cc(F)ccc2N1` (configuration not stated) returned a CC50 in data set [1] of 60300 nM. For the same molecule, the concentration for a half-maximal effect (EC50) came out at 666 nM in data set [2] and 230 nM in data set [3].
For the molecule `O=C(Cc1ccccc1)NC(c1ccccc1)c1ccc2cccnc2c1O` (configuration not stated), the CC50 in data set [1] was > 100000 nM. For the same molecule, the EC50 in data set [2] turned out to be 423 nM; in data set [3] it was 382 nM.
Consider `CCOc1cc(-c2nnc3[nH]c(=O)n(C)c(=O)c3n2)ccc1OC(C)C`, for which, in data set [1], the CC50 was > 100000 nM. Moreover, the values for the 50% effective concentration (EC50) in data set [2] and in data set [3] were 1100 nM and 394 nM, respectively.
The corresponding values for `CC(=O)Oc1ccccc1-c1nc2ccccn2c1NC(C)(C)CC(C)(C)C` are > 9440 nM, 489 nM and 36.7 nM.
Regarding `Cc1cc(C(C)(C)C)cc(S(=O)(=O)NCCO)c1C`, in data set [1], the CC50 was > 100000 nM. Moreover, the EC50 in data set [2] is > 12500 nM; in data set [3], 377 nM.
The corresponding values for `CCN1CCN(Cc2c(O)ccc3c(=O)c(Oc4ccccc4Br)c(C(F)(F)F)oc23)CC1` are > 100000 nM, 1390 nM and 377 nM.
Take `Nc1c(C(=O)Nc2ccc(F)cc2)sc2nc3c(c(-c4cccs4)c12)CCCCC3`: the CC50 in data set [1] was > 100000 nM. Also, the EC50 worked out at 937 nM in data set [2] and 388 nM in data set [3].
On to `C=CC[N+]1(CC#Cc2cccc3ccccc23)CCCCC1`, for which the CC50 in data set [1] was > 100000 nM. Further, the EC50 worked out at 683 nM in data set [2] and 396 nM in data set [3].
The like results for `CCOc1ccccc1NC(=O)Cn1c(=O)n(Cc2ccccc2)c(=O)c2c(C)c(C(=O)N(C)C)sc21` were, in that order, > 100000 nM, 883 nM and 377 nM.
The corresponding values for `Cn1c(-c2ccc([N+](=O)[O-])cc2)[n+](C)c2ccccc21` are > 100000 nM, 1310 nM and 376 nM.
The like results for `C#CCNC(=O)c1ccc(OC2CCN(CC3CCCCC3)CC2)c(Cl)c1` were, in that order, > 100000 nM, 499 nM and 396 nM.
In turn, `CN(CCCNc1ccnc2cc(Cl)ccc12)C(=O)COc1ccc(Cl)cc1` returned a CC50 in data set [1] of 20300 nM. Besides, the EC50 in data set [2] amounted to 59.2 nM; in data set [3], 78.5 nM.
Regarding `CCOC(=O)c1ccc2c(c1)[C@@H]1C=CC[C@@H]1[C@H](c1ccc(OC)c([N+](=O)[O-])c1)N2`, the CC50 in data set [1] was > 100000 nM. The values for the EC50 in data set [2] and in data set [3] were 390 nM and 376 nM, respectively.
Take `CN(c1ncnc2sc3c(c12)CCCC3)C1CCCCC1`: the 50% cytotoxic concentration (CC50) in data set [1] is > 10000 nM. For the same molecule, the EC50 in data set [2] was > 921 nM; in data set [3], < 37.4 nM.
The corresponding values for `COc1cc(Cl)c(C)cc1NC(=O)C1c2ccccc2C(=O)N(CC(C)C)C1c1cccs1` (configuration not stated) are > 100000 nM, 578 nM and 373 nM.
As to `CC[n+]1c(C=C2C=C(C)OC(C)=C2)sc2ccccc21`, the CC50 in data set [1] is > 32000 nM. For the same molecule, the results for the EC50 in data set [2] and in data set [3] were 147 nM and 119 nM, respectively.
The like results for `C=CCn1nc(C(=O)N2CCCC2)c2c1CCC(N1CCCCCC1)C2` (configuration not stated) were, in that order, > 10000 nM, 772 nM and 39.8 nM.
The corresponding values for `COc1ccc(-c2csc(Nc3cccc(Cl)c3C)n2)cc1OC` are > 89300 nM, 8210 nM and 355 nM.
As for `COc1ccc2c(c1)N(C(=O)CSc1nc3ccccc3o1)C(C)(C)c1ssc(=S)c1-2`, in data set [1], the CC50 is > 100000 nM. The half-maximal effective concentration (EC50) in data set [2] is 345 nM; in data set [3] it was 392 nM.
The like results for `C=CCc1cc(C=c2sc3n(c2=O)C(c2ccccc2)C(C(=O)OCC)=C(C)N=3)cc(OC)c1O` (configuration not stated) were, in that order, > 100000 nM, 2500 nM and 391 nM.
`CCN1CCN(c2nc3ccccn3c(=O)c2C=C2SC(=S)N(C(C)C)C2=O)CC1` returned a CC50 in data set [1] of 79000 nM. The EC50 in data set [2] came to 701 nM; in data set [3], 304 nM.
As to `COc1ccc2nc(C)cc(NN=Cc3cccc(OC)c3O)c2c1`, the CC50 in data set [1] turned out to be 6120 nM. The 50% effective concentration (EC50) in data set [2] worked out at 25.1 nM; in data set [3] it was 23.5 nM.
The like results for `CCc1cc(=O)n(C)c(SC(CC)C(=O)Nc2ccc(F)cc2)n1` (configuration not stated) were, in that order, > 100000 nM, 484 nM and 383 nM.
The like results for `O=C1CC(c2ccc(O)cc2)C2=C(CC(c3ccccc3Cl)CC2=O)N1` (configuration not stated) were, in that order, > 100000 nM, 672 nM and 391 nM.
The corresponding values for `Cc1c(Cl)cccc1NC(=S)N1CCCN(c2ccc(C(F)(F)F)cc2[N+](=O)[O-])CC1` are 51400 nM, 254 nM and 202 nM.
As for `Cn1c(SCCCCNC(=O)c2cc([N+](=O)[O-])cc([N+](=O)[O-])c2)nc(-c2ccccc2)c1-c1ccccc1`, in data set [1], the CC50 is > 8570 nM. In addition, the EC50 in data set [2] is 1410 nM; in data set [3], 33.7 nM.
As for `Cc1ccn2c(NC(C)(C)CC(C)(C)C)c(-c3ccccc3OC(=O)c3cccs3)nc2c1`, the CC50 in data set [1] is > 10000 nM. In addition, the EC50 was 667 nM in data set [2] and 39.3 nM in data set [3].
The like results for `CC(C)CSc1nc2sc3c(c2c(=O)n1-c1ccccc1)CCN(Cc1ccccc1)C3` were, in that order, > 100000 nM, 945 nM and 392 nM.
The corresponding values for `CN(C)CCNc1c2c(nc3ccccc13)CCC2` are 61400 nM, 579 nM and 242 nM.
The like results for `Cc1ccccc1N=Nc1ccc(NC(=O)c2ccco2)c(C)c1` were, in that order, 72200 nM, 402 nM and 272 nM.
`Cc1ccc(-c2nn3c(O)c4c(nc3c2C)CCCC4)cc1`: the CC50 in data set [1] is > 100000 nM. Moreover, the EC50 in data set [2] turned out to be 256 nM; in data set [3], 384 nM.
The like results for `C=CCn1c(=N)n(CC(O)c2ccc(Cl)c(Cl)c2)c2ccccc21` (configuration not stated) were, in that order, 14700 nM, 140 nM and 58.3 nM.
The like results for `Cc1cc(=O)oc2c1ccc1oc(C(=O)c3ccccc3)c(C)c12` were, in that order, > 100000 nM, 441 nM and 392 nM.
Consider `COc1cc(C=CC(=O)Nc2c3c(nn2-c2ccc(F)cc2)CSC3)cc(OC)c1OC`, for which the CC50 in data set [1] is > 100000 nM. Further, the values for the EC50 in data set [2] and in data set [3] were 918 nM and 381 nM, respectively.
The like results for `CCC1CCCCN1C(=O)C1CC(=O)N(c2ccc(OC)cc2)C1c1ccc(OC)cc1` (configuration not stated) were, in that order, > 100000 nM, 387 nM and 394 nM.
The like results for `COc1cc(C=NNc2nc3ccccc3[nH]2)cc(OC)c1OC` were, in that order, 87500 nM, 176 nM and 339 nM.
The like results for `CCOc1cccc(Nc2c3c(nc4ncnn24)CCC3)c1` were, in that order, > 100000 nM, 597 nM and 374 nM.
On to `NC(=S)NN=CC(=NNC(N)=S)c1ccccc1`, for which the half-maximal cytotoxic concentration (CC50) in data set [1] was > 10000 nM. In addition, the figures for the EC50 in data set [2] and in data set [3] were 48.1 nM and 37.6 nM, respectively.
The corresponding values for `O=C(NC(=CC=Cc1ccccc1)C(=O)N1CCCCC1)c1ccc([N+](=O)[O-])cc1` are > 100000 nM, 8290 nM and 392 nM.
The like results for `O=C(Nc1ccc(-c2nc3ccccc3[nH]2)cc1)c1cccc(C(=O)Nc2ccc(-c3nc4ccccc4[nH]3)cc2)n1` were, in that order, 31700 nM, 121 nM and 126 nM.
The corresponding values for `Cc1onc(-c2ccccc2)c1C(=O)N1CCC(CNc2c(-c3ccc(F)cc3)nc3ccccn23)CC1` are 45000 nM, 674 nM and 178 nM.
For `Cc1ccccc1Oc1cc(NC(=O)c2cc3n(n2)C(C(F)(F)F)CC(c2ccccc2)N3)cc(Oc2ccccc2C)c1` (configuration not stated), the CC50 in data set [1] is > 100000 nM. The EC50 in data set [2] came out at 359 nM; in data set [3], 380 nM.
The corresponding values for `O=C(NN=Cc1c(O)ccc2ccccc12)c1cccnc1` are > 100000 nM, 875 nM and 373 nM.
The like results for `Cc1cc(C(=O)Nc2cnn(Cc3ccc(Cl)cc3Cl)c2)no1` were, in that order, > 100000 nM, 620 nM and 371 nM.
The corresponding values for `COc1cc(C2c3[nH]c4ccccc4c3C[C@H]3C(=O)N(CCc4ccccc4)CC(=O)N23)cc(OC)c1OC` (some centres not stated) are > 100000 nM, 611 nM and 374 nM.
With `C=CCn1c(=O)c(C(=O)NCC[N+](CC)(CC)CC=C)c(O)c2ccccc21`, in data set [1], the CC50 is > 100000 nM. In addition, the values for the EC50 in data set [2] and in data set [3] were 1130 nM and 385 nM, respectively.
The like results for `CSc1ccccc1CN1CCc2nc(N3CCCCC3)sc2C1` were, in that order, > 10000 nM, 369 nM and 38.1 nM.
